Measurements published in the supplement of paper PMC10307832.

Tests used:
Test in all cases: relative viability (nuclei count vs DMSO), 5 days (fraction); higher = more cells survive
[1] = compound: O=C(C[C@H]1NCCC[C@@H]1O)Cn1cnc2cc(Br)c(Cl)cc2c1=O (racemic) [Halofuginone] + Cc1cc(Nc2cc(N3CCN(C)CC3)nc(Sc3ccc(NC(=O)C4CC4)cc3)n2)n[nH]1 [Tozasertib] (partner 0.1 µM)
Method in brief: (§1)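 Five library-drug doses in √10 steps were combined with a fixed anchor-drug dose, or a single drug was given alone, by pin tool to lung cancer cell lines in 1536-well plates the day after seeding. Nuclei were stained and counted after 5 days. Relative viability is the nuclei count in treated wells over that in vehicle wells, taken as the median of duplicate plates.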

Halofuginone + OSI-027 = compound: O=C(C[C@H]1NCCC[C@@H]1O)Cn1cnc2cc(Br)c(Cl)cc2c1=O (racemic) [Halofuginone] + COc1cccc2cc(-c3nc([C@H]4CC[C@H](C(=O)O)CC4)n4ncnc(N)c34)[nH]c12 [OSI-027] (partner 0.5 µM)
Method in brief: as §1

[2] = compound: O=C(C[C@H]1NCCC[C@@H]1O)Cn1cnc2cc(Br)c(Cl)cc2c1=O (racemic) [Halofuginone] + Nc1nc2[nH]cc(CCc3ccc(C(=O)N[C@@H](CCC(=O)O)C(=O)O)cc3)c2c(=O)[nH]1 [Pemetrexed] (partner 0.2 µM)
Method in brief: as §1

Decitabine + Foretinib = compound: Nc1ncn([C@H]2C[C@H](O)[C@@H](CO)O2)c(=O)n1 [Decitabine] + COc1cc2c(Oc3ccc(NC(=O)C4(C(=O)Nc5ccc(F)cc5)CC4)cc3F)ccnc2cc1OCCCN1CCOCC1 [Foretinib] (partner 0.25 µM)
Method in brief: as §1

| Cell Line | relative viability ([1]; first compound 0.001 µM) | relative viability ([1]; first compound 0.003162 µM) | relative viability ([1]; first compound 0.01 µM) | relative viability ([1]; first compound 0.03162 µM) | relative viability ([1]; first compound 0.1 µM) | relative viability (Halofuginone + OSI-027; first compound 0.001 µM) | relative viability (Halofuginone + OSI-027; first compound 0.003162 µM) | relative viability (Halofuginone + OSI-027; first compound 0.01 µM) | relative viability (Halofuginone + OSI-027; first compound 0.03162 µM) | relative viability (Halofuginone + OSI-027; first compound 0.1 µM) | relative viability ([2]; first compound 0.001 µM) | relative viability ([2]; first compound 0.003162 µM) | relative viability ([2]; first compound 0.01 µM) | relative viability ([2]; first compound 0.03162 µM) | relative viability ([2]; first compound 0.1 µM) | relative viability (Decitabine + Foretinib; first compound 0.04 µM) | relative viability (Decitabine + Foretinib; first compound 0.1265 µM) | relative viability (Decitabine + Foretinib; first compound 0.4 µM) | relative viability (Decitabine + Foretinib; first compound 1.265 µM) | relative viability (Decitabine + Foretinib; first compound 4 µM) |
| --- | --- | --- | --- | --- | --- | --- | --- | --- | --- | --- | --- | --- | --- | --- | --- | --- | --- | --- | --- | --- |
| NCI-H2342 | 0.522 | 0.493 | 0.498 | 0.478 | 0.506 | 0.565 | 0.622 | 0.574 | 0.7 | 0.618 | 0.801 | 0.702 | 0.774 | 0.76 | 0.727 | 1.29 | 1.03 | 1.1 | 0.674 | 0.568 |
| SW 1573 | 0.242 | 0.192 | 0.111 | 0.129 | 0.121 | 0.919 | 0.85 | 0.571 | 0.509 | 0.143 | 0.914 |  | 0.775 | 0.574 | 0.208 | 0.769 | 0.891 | 0.793 | 0.591 | 0.49 |
| NCI-H1993 | 0.56 | 0.52 | 0.565 | 0.545 | 0.532 | 0.56 | 0.592 | 0.564 | 0.47 | 0.523 | 0.664 | 0.577 | 0.564 | 0.652 | 0.508 | 0.746 | 0.693 | 0.824 | 0.742 | 0.771 |
| NCI-H661 | 0.365 | 0.35 | 0.322 | 0.33 | 0.391 | 0.776 | 0.685 | 0.679 | 0.611 | 0.499 | 0.927 | 0.896 | 0.868 | 0.768 | 0.642 | 1.02 | 0.966 | 0.777 | 0.6 | 0.554 |
| NCI-H520 | 0.457 | 0.457 | 0.461 | 0.467 | 0.322 | 0.311 | 0.3 | 0.258 | 0.321 | 0.199 | 0.726 | 0.662 | 0.784 | 0.611 | 0.246 | 0.732 | 0.691 | 0.584 | 0.387 | 0.343 |
| ChaGo-K-1 | 0.256 | 0.205 | 0.261 | 0.222 | 0.208 | 0.537 | 0.605 | 0.528 | 0.537 | 0.501 | 0.297 | 0.254 | 0.251 | 0.256 | 0.258 | 0.819 | 0.683 | 0.507 | 0.376 | 0.421 |
| NCI-H2085 | 0.959 | 0.877 | 0.729 | 0.847 | 0.716 | 0.886 | 0.832 | 0.755 | 0.721 | 0.523 | 0.93 | 0.873 | 0.872 | 1.03 | 0.783 | 0.695 | 0.556 | 0.407 | 0.457 | 0.426 |
| NCI-H1651 | 1.03 | 0.773 | 0.702 | 0.471 | 0.352 | 0.825 | 0.701 | 0.655 | 0.665 | 0.382 | 0.56 | 0.489 | 0.568 | 0.572 | 0.592 | 0.685 | 0.942 | 0.783 | 0.647 | 0.526 |
| RERF-LC-KJ | 0.549 | 0.484 | 0.468 | 0.456 | 0.346 | 0.618 | 0.609 | 0.537 | 0.565 | 0.488 | 0.452 | 0.45 | 0.434 | 0.454 | 0.461 | 0.877 | 0.84 | 0.741 | 0.689 | 0.635 |
| NCI-H1755 | 0.591 | 0.569 | 0.567 | 0.591 | 0.461 | 0.76 | 0.788 | 0.677 | 0.753 | 0.627 | 0.418 | 0.469 | 0.413 | 0.423 | 0.484 | 0.889 | 0.886 | 0.804 | 0.565 | 0.447 |
| SK-MES-1 | 1.03 | 0.926 | 0.754 | 0.647 | 0.168 | 0.679 | 0.666 | 0.557 | 0.498 | 0.152 | 1.07 | 0.983 | 0.877 | 0.74 | 0.253 | 0.688 | 0.758 | 0.697 | 0.407 | 0.309 |
| NCI-H2126 | 0.918 | 0.845 | 0.859 | 0.793 | 0.62 | 0.727 | 0.604 | 0.695 | 0.612 | 0.549 | 0.719 | 0.655 | 0.624 | 0.68 | 0.571 | 1.05 | 0.929 | 0.607 | 0.583 | 0.466 |
| NCI-H1703 |  |  |  |  |  |  |  |  |  |  |  |  |  |  |  | 0.371 | 0.341 | 0.455 | 0.377 | 0.271 |
| NCI-H522 | 0.528 | 0.566 | 0.572 | 0.512 | 0.491 | 0.734 | 0.707 | 0.721 | 0.689 | 0.605 | 1.08 | 0.968 | 1.03 | 1.11 | 0.918 |  |  |  |  |  |
| NCI-H1563 |  |  |  |  |  | 0.859 | 0.735 | 0.837 | 0.612 | 0.527 | 0.782 | 0.788 | 0.825 | 0.685 | 0.585 | 0.984 | 0.886 | 1.14 | 0.949 | 0.917 |
| NCI-H1792 |  |  |  |  |  | 0.71 | 0.749 | 0.801 | 0.737 | 0.592 | 0.922 | 0.813 | 0.53 | 0.891 | 0.391 |  |  |  |  |  |
| NCI-H1623 | 0.487 | 0.44 | 0.459 | 0.459 | 0.426 | 0.536 | 0.455 | 0.436 | 0.517 | 0.423 |  |  |  |  |  | 0.706 | 0.822 | 0.657 | 0.53 | 0.549 |
| IA-LM |  |  |  |  |  |  |  |  |  |  |  |  |  |  |  | 0.543 | 0.502 | 0.282 | 0.204 | 0.108 |
| EBC-1 |  |  |  |  |  |  |  |  |  |  |  |  |  |  |  | 0.0865 | 0.0957 | 0.106 | 0.0836 | 0.0866 |
| NCI-H1299 |  |  |  |  |  |  |  |  |  |  |  |  |  |  |  | 1.09 | 1.13 | 1.03 | 1.03 | 1.01 |
